According to US20230390272A1 (PRILENIA NEUROTHERAPEUTICS LTD., priority 2020, published 2023):
Where “and” joins values, the source holds several entries; their conditions need not be identical. Identical values can stand only once. Like-named read-outs stand apart in the source and are kept apart here.

Key:
Sigma-1 Receptor (S1R) = Sigma-1 Receptor (S1R) (Homo sapiens (Human), UniProt Q99720); assay: In-vitro binding assay, Sigma-1 receptor; settings: for S1R fold selectivity (S2R/S1R): ratio S2R Ki/S1R Ki
Chain of Sigma-1 Receptor (S1R) (Q99720 whole entry, species assumed): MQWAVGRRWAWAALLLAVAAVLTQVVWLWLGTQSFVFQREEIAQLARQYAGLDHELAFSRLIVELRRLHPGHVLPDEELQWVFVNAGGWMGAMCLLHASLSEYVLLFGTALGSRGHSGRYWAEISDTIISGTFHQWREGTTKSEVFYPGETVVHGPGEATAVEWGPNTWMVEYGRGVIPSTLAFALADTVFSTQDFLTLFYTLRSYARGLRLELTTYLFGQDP
Description: (§1) In-vitro binding assays performed at Eurofins Panlabs Taiwan, Ltd. Specific ligand binding was determined in the presence of an excess of unlabelled ligand.

B104 neuroblastoma cells = assay: BDNF release from B104 cells, in-situ ELISA; assay type: cell-based, rat; settings: 5 days, vs untreated control
Sigma-2 receptor (S2R) = Sigma-2 receptor (S2R) (Homo sapiens (Human), UniProt Q5BJF2); assay: In-vitro binding assay, Sigma-2 receptor; settings: Cheng Prusoff equation
Chain of Sigma-2 receptor (S2R) (Q5BJF2 whole entry, species assumed): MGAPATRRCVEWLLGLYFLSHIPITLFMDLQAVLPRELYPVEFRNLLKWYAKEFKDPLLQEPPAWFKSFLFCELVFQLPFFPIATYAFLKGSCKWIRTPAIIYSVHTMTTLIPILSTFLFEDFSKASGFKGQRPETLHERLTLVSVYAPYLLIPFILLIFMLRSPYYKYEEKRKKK
Description: as §1

YAC128 HD mice [1] = test system: YAC128 HD mice
Description: (§2) Animals. […] Mice were bred at the Biological Resource Centre (Agency for Science, Technology and Research, ASTAR), and group-housed with littermates of mixed genotype. Animals were maintained under a 12-h light cycle (lights on at 09:00) in a clean facility, and given free access to food and water. Experiments were performed with the approval of the Institutional Animal Care and Use Committee at the Biomedical Sciences Institute (ASTAR) and in accordance with their approved guidelines.
(§3) Animals were weighed every two weeks to ensure the correct dose was maintained.
(§4) Mice were divided into three groups. […] One cohort was behaviorally tested every two months commencing at 2 months of age. Mice were tested for psychiatric function (open field, elevated plus maze, and forced swim test). Tests were conducted at a set time during the day, prior to drug administration.

YAC128 HD mice [2] = settings: early treatment from 1.5 months, 30 mg/kg
Description: as §2, §3, §4
Anxiety-like behavioral tests. The open-field (OF) and elevated plus maze (EPM) tests are used to assess anxiety-like behavioral in rodents. The time spent in the center of the arena in the OF and the time spent in the open arms of the maze in the EPM are considered measures of anxiety-like behavior.

Sprague-Dawley male rats = settings: FST day 8
Excerpt: On day 8, rats were again placed in a water tank, and time spent immobile measured.
Sprague-Dawley male rats, 6 weeks old were used. Rats were pre-tested on day 1 to ensure stable and high duration of immobility during the 5-min test session.

Male NMRI mice = settings: 30 min before test
Excerpt: Animals were assigned according to the experimental plan to one of the 4 test boxes run simultaneously.
The number of marbles covered by sawdust were counted. The experimenter also observed the animals for obvious inhibition of general activity (locomotor activity).

HD patients = settings: 45 mg bid
Excerpt: PBA-S includes behavioral assessments of depressed mood, anxiety, apathy and irritability.
The lack of initiative subscale of the PBA-S is a measure of apathy in HD patients. Apathy is a symptom common to HD and depression.
The Problem Behaviors Assessment-Short (PBA-s) scale, is a measure of psychiatric symptoms including anxiety, depression and apathy. The PBA-s is an interview designed specifically for rating the severity and frequency of behavioral abnormalities in HD. PBA-S includes behavioral assessments of depressed mood, anxiety, apathy and irritability. This scale is widely used in HD clinical trials and recommended as a measure of screening behavioral symptoms, including depression and anxiety. […] The lack of initiative subscale of the PBA-S is a measure of apathy in HD patients. Apathy is a symptom common to HD and depression.

Male Sprague-Dawley rats = settings: 30 mg/kg p.o., 30 min and 120 min after administration
Description: Male Sprague-Dawley rats (270-400 g bodyweight) were housed in groups of two in a temperature (20±2° C.) and humidity (50-60%) controlled colony room under a non-reversed 12 (6-18 on)/12 h light-dark cycle with food and water ad libitum except during the actual experiments. 4 rats were used for each drug dose and the vehicle-treated control group.
USV was recorded by a microphone and processed by an interface to select USV signals and to digitize the resulting signals for automatic processing. In the priming phase, each rat was placed in the test chamber. After a 2 min time period, a series of at most ten shocks (trials), 1.8 mA for 0.3 s, separated by 20 s shock-free intervals, was delivered via the grid floor of the test chamber. In the shock-free intervals the occurrence of ultrasonic vocalization (22±5 kHz) was automatically recorded, and the duration of ultrasonic vocalization was calculated immediately. The priming session was terminated either when the rat constantly vocalized at least for 10 s on three consecutive trials or after the tenth trial. Rats not responding with USV on three consecutive trials were excluded from the test. In the actual test performed on the next day, each rat received 5 initial shocks (1.8 mA for 0.3 s, separated by 20 s shock-free intervals) in the test chamber, and the duration of USV (22+4 kHz) was recorded during the following 3 min period.

[3] = test system: rodents exhibiting symptoms of anxiety; settings: periodic administration, paper example
[4] = test system: patient diagnosed with anxiety or depression; settings: periodic administration, intravenous or oral, paper example
D3Rs = D3Rs (Homo sapiens (Human), UniProt P35462); settings: cited from earlier work
Chain of D3Rs (P35462 whole entry): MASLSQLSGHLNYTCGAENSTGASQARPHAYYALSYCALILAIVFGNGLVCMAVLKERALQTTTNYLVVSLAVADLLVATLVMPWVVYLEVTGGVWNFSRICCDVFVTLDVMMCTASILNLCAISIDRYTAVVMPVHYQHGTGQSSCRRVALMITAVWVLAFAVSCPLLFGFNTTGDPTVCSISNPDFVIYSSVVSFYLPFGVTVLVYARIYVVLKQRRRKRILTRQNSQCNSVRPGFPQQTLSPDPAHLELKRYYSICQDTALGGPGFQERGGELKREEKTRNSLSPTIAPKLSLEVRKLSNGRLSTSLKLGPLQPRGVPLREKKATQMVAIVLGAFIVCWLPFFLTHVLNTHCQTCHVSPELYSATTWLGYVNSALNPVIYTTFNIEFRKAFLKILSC

D2Rs = D2Rs (Homo sapiens (Human), UniProt P14416); settings: cited from earlier work
Chain of D2Rs (P14416 whole entry): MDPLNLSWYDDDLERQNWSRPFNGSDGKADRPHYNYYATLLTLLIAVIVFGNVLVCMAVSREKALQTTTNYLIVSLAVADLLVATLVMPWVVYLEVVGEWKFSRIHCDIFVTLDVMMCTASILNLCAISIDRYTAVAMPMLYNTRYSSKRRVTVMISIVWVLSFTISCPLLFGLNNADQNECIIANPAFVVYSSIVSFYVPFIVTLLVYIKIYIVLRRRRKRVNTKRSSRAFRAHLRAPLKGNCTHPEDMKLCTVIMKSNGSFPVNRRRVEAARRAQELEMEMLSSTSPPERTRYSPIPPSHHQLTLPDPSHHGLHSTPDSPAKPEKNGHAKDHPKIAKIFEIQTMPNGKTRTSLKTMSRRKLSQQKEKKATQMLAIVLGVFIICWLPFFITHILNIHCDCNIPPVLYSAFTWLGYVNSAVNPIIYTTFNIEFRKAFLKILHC

CCCN1CCC(O)(c2cccc(S(C)(=O)=O)c2)CC1 [Compound 1]
S1R fold selectivity (S2R/S1R) (Sigma-1 Receptor (S1R)): >270 fold | increase in BDNF secretion (B104 neuroblastoma cells; Compound 1 1 μM alone): 12.5%

CCCN1CC[C@@H](c2cccc(S(C)(=O)=O)c2)[C@@H](O)C1 [Compound 4]
S1R fold selectivity (S2R/S1R) (Sigma-1 Receptor (S1R)): >35 fold | change in BDNF secretion (B104 neuroblastoma cells; Compound 4 0.001 μM alone): −1.5%

CCCN1CCC(c2cccc(S(C)(=O)=O)c2)CC1 [Pridopidine, 4-[3-(methylsulfonyl)phenyl]-1-propyl-piperidine]
Ki (Sigma-1 Receptor (S1R); Cheng Prusoff equation): 0.057 µM | Ki (Sigma-2 receptor (S2R)): 5.45 µM | increase in BDNF secretion (B104 neuroblastoma cells; pridopidine 0.001 μM alone): 13.6% and 13.5% | increase in BDNF secretion (B104 neuroblastoma cells; pridopidine 0.005 μM alone): 26% | increase in BDNF secretion (B104 neuroblastoma cells; pridopidine 0.01 μM alone): 3.4% | time spent immobile in forced swim test (YAC128 HD mice [1]; early treatment from 1.5 months, 30 mg/kg, 12 months of age): reduced the time spent immobile | depressive-like behavior, immobility time in forced swim test (YAC128 HD mice [1]; late (manifest) treatment from 8 months, escalating to 30 mg/kg oral gavage): significantly improves depressive-like phenotype | time spent in the center of the arena (open field) (YAC128 HD mice [2]; tested at 6 months): increased the time spent in the center of the arena | time spent in the open arms (elevated plus maze) (YAC128 HD mice [2]; tested at 8 months): decreased anxiety-like behavior | decrease in immobility time (Sprague-Dawley male rats; 3 mg/kg oral gavage daily for 7 days): 38% | decrease in immobility time (Sprague-Dawley male rats; 15 mg/kg oral gavage daily for 7 days): 58% | inhibition of marble-burying (Male NMRI mice; 1 mg/kg p.o.): 8% | inhibition of marble-burying (Male NMRI mice; 3 mg/kg p.o.): 49% | inhibition of marble-burying (Male NMRI mice; 10 mg/kg p.o.): 62% | inhibition of marble-burying (Male NMRI mice; 30 mg/kg p.o.): 73% | PBA-S change from baseline vs placebo (HD patients; week 52, p=0.0603): −2.13 units | PBA-S lack of initiative measure, change from baseline vs placebo (HD patients; week 52, p=0.0704): −1.27 units | effect on USV duration (Male Sprague-Dawley rats): significantly inhibited USV | efficacy in treating anxiety [3]: effective in treating anxiety | efficacy in treating patient with anxiety or depression [4]: effective in treating the patient | higher affinity towards the S1R vs D3Rs (D3Rs): ~30 fold | higher affinity towards the S1R vs D2Rs (D2Rs): ~500 fold
